According to ChEMBL document CHEMBL6127042, “Design, synthesis and antimycobacterial activity of novel benzothiazinones with improved water solubility” (Eur J Med Chem, 2024):
In brackets after ≈: the same amount, converted by molar mass.

Tests used:
[1] = system: Mycobacterium tuberculosis; assay: Antitubercular activity against multidrug resistant Mycobacterium tuberculosis 16995 assessed as bacterial growth inhibition incubated for 7 days in 7H9 medium by alamar blue staining based microplate fluorometric analysis; format: functional; conditions: Mycobacterium tuberculosis, 16995, 168 h; time 7 day
[2] = system: Mycobacterium tuberculosis; assay: Antitubercular activity against multidrug resistant Mycobacterium tuberculosis 16833 assessed as bacterial growth inhibition incubated for 7 days in 7H9 medium by alamar blue staining based microplate fluorometric analysis; format: functional; conditions: Mycobacterium tuberculosis, 16833, 168 h; time 7 day
[3] = Selectivity index, ratio of CC50 for cytotoxicity against African green monkey Vero cells to MIC for antimycobacterial activity against multidrug resistant Mycobacterium tuberculosis 16833; format: toxicity, cell-based; conditions: read-out: Selectivity Index

Row | SMILES | MIC [1] [µM] | MIC [2] [µM] | selectivity ratio [3]
1 | O=C(O)CON=C1CCC(CN2CCN(c3nc(=O)c4cc(C(F)(F)F)cc([N+](=O)[O-])c4s3)CC2)CC1 (stereo not drawn) | 0.057 (≈ 0.031 µg/mL) | 0.057 (≈ 0.031 µg/mL) | > 2070
2 | O=C(O)CCON=C1CCC(CN2CCN(c3nc(=O)c4cc(C(F)(F)F)cc([N+](=O)[O-])c4s3)CC2)CC1 (stereo not drawn) | 0.221 (≈ 0.123 µg/mL) | 0.212 (≈ 0.118 µg/mL) | > 542
3 | C[C@H](NC(=O)CON=C1CCC(CN2CCN(c3nc(=O)c4cc(C(F)(F)F)cc([N+](=O)[O-])c4s3)CC2)CC1)C(=O)OC(C)(C)C (stereo partly drawn) | 0.167 (≈ 0.112 µg/mL) | 0.14 (≈ 0.0939 µg/mL) | > 682
4 | O=c1nc(N2CCN(CC3CCCCC3)CC2)sc2c([N+](=O)[O-])cc(C(F)(F)F)cc12 [MACOZINONE] | < 0.035 | < 0.035 | > 4010
5 | CO[C@H]1/C=C/O[C@@]2(C)Oc3c(C)c(O)c4c(O)c(c(/C=N/N5CCN(C)CC5)c(O)c4c3C2=O)NC(=O)/C(C)=C\C=C\[C@H](C)[C@H](O)[C@@H](C)[C@@H](O)[C@@H](C)[C@H](OC(C)=O)[C@@H]1C [RIFAMPIN] | > 12.2 | > 12.2 | –
6 | CC(C)(C)OC(=O)CCON=C1CCC(CN2CCN(c3nc(=O)c4cc(C(F)(F)F)cc([N+](=O)[O-])c4s3)CC2)CC1 (stereo not drawn) | 0.068 (≈ 0.0417 µg/mL) | 0.031 (≈ 0.019 µg/mL) | > 3370
7 | CC(C)(C)OC(=O)NCCON=C1CCC(CN2CCN(c3nc(=O)c4cc(C(F)(F)F)cc([N+](=O)[O-])c4s3)CC2)CC1 (stereo not drawn) | 0.041 (≈ 0.0258 µg/mL) | < 0.025 | > 4080
8 | NNC(=O)c1ccncc1 [ISONIAZID] | > 72.9 | > 72.9 | –
9 | CC(C)(C)OC(=O)CNC(=O)CON=C1CCC(CN2CCN(c3nc(=O)c4cc(C(F)(F)F)cc([N+](=O)[O-])c4s3)CC2)CC1 (stereo not drawn) | 0.03 (≈ 0.0197 µg/mL) | 0.239 (≈ 0.157 µg/mL) | > 408
10 | O=C(O)CNC1CCC(CN2CCN(c3nc(=O)c4cc(C(F)(F)F)cc([N+](=O)[O-])c4s3)CC2)CC1 (stereo not drawn) | 0.095 (≈ 0.0503 µg/mL) | 0.087 (≈ 0.0461 µg/mL) | > 1390
11 | CC(C)(C)OC(=O)CNC(=O)C(C)(C)ON=C1CCC(CN2CCN(c3nc(=O)c4cc(C(F)(F)F)cc([N+](=O)[O-])c4s3)CC2)CC1 (stereo not drawn) | 0.066 (≈ 0.0452 µg/mL) | 0.067 (≈ 0.0459 µg/mL) | > 1400
12 | C[C@H](NC(=O)C(C)(C)ON=C1CCC(CN2CCN(c3nc(=O)c4cc(C(F)(F)F)cc([N+](=O)[O-])c4s3)CC2)CC1)C(=O)OC(C)(C)C (stereo partly drawn) | 0.03 (≈ 0.021 µg/mL) | < 0.023 | > 3980
13 | CC(C)(ON=C1CCC(CN2CCN(c3nc(=O)c4cc(C(F)(F)F)cc([N+](=O)[O-])c4s3)CC2)CC1)C(=O)O (stereo not drawn) | 0.109 (≈ 0.0623 µg/mL) | 0.375 (≈ 0.214 µg/mL) | > 299
14 | O=C(O)CNC(=O)CCON=C1CCC(CN2CCN(c3nc(=O)c4cc(C(F)(F)F)cc([N+](=O)[O-])c4s3)CC2)CC1 (stereo not drawn) | 0.425 (≈ 0.261 µg/mL) | 0.21 (≈ 0.129 µg/mL) | > 496
15 | CC(C)(C)OC(=O)CNC(=O)CCON=C1CCC(CN2CCN(c3nc(=O)c4cc(C(F)(F)F)cc([N+](=O)[O-])c4s3)CC2)CC1 (stereo not drawn) | 0.093 (≈ 0.0624 µg/mL) | 0.048 (≈ 0.0322 µg/mL) | > 1990
